Measured values taken from publication PMC9089363, “Nonpolymeric Citramide-Based Kinetic Hydrate Inhibitors: Good Performance with Just Six Alkylamide Groups” (ACS Omega, 2022).
Read-outs that look alike come from different tables or passages of the source.

Experiments:
[1] = Slow constant cooling (SCC) KHI performance test in high-pressure steel rocking cells; conditions: SNG 76 bar
Protocol: 2.5 Kinetic Hydrate Inhibitor (KHI) Performance Tests in High-Pressure Rocking Cells
A rig with five high-pressure steel rocking cells was used for carrying out the KHI performance ranking of the new molecules. Each cell has a volume of 40 mL and a steel ball for agitation. The rig was supplied by PSL Systemtechnik GmbH, Germany, but the cells were constructed by Swafas, Norway (Figure 6). As in most of our KHI studies, we used a synthetic natural gas (SNG) mixture in order to compare results with a host of previous KHI studies. The SNG gives an sII hydrate as the thermodynamically stable phase (Table 1). Also, for comparative purposes we used our standard slow constant cooling (SCC) test method.[27] The pressure was approximately 76 bar at the start of each SCC experiment. At this pressure, an average equilibrium temperature (Teq) of 20.2 °C ± 0.05 °C was obtained from five repeat tests by laboratory slow dissociation experiments in the same rocking cells.[20] This agrees very well with a Teq value of 20.5 °C calculated using Calsep’s PVTSim software.
The SCC test procedure was carried out as follows: • 1. First, 20.0 mL of aqueous test solution was added to each steel cell, i.e., half the cell volume. • 2. Air was removed from the cells by alternate vacuum and filling with 1–5 bar SNG gas. • 3. The cells were filled with a 76 bar SNG mixture at room temperature, 20.5 °C. • 4. The cells were cooled from 20.5 to 2 °C at a rate of 1 °C/h while rocking. • 5. Temperature and pressure data for each cell were collected from the sensors and recorded throughout the whole cooling procedure.
Figure 8 illustrates how this is done for one cell. The small pressure drop at the very start of the graph is due to some SNG mixture dissolving in the aqueous phase. After this, the pressure drop is linear until hydrate formation is first detected at a To of 8.4 °C, where the pressure line deviates. Nucleation may have occurred somewhat earlier but is not detectable. Ta is the first temperature at which we observe the maximum rate of gas hydrate formation for the experiment.
At 8.1 °C (Ta), the first fastest pressure drop rate occurs. In this case, the rate of hydrate growth is fast shortly after To. […] The degrees of scattering in To values (≤20%) and Ta values (≤15%) are due to the stochastic nature of gas hydrate formation and are as expected from previous studies.[28] The scattering still allows for a rough ranking of the performance of the KHI samples as long as sufficient tests are carried out for a statistically significant difference using a t-test. Depending on the variation in average To between samples, 5–10 tests suffices in most cases to get a significant difference at the 95% confidence level (p < 0.05).[29]
At least 5 (and up to 10) standard constant cooling tests were employed to get each average To and average Ta value, where To denotes the temperature at which the first macroscopic detectable gas hydrate is formed and Ta denotes the rapid hydrate formation temperature in a solution. The KHI performance of each citramide derivative was compared mostly based on the To values as complete avoidance of gas hydrate formation is the preferred goal for field operations. Thus, a lower To value of a solution corresponds to a better KHI performance. […] However, caution in using this interpretation must be taken, since a low To value will mean a high driving force, which can cause more rapid macroscopic hydrate formation than a higher To value.

[2] = Cloud point (TCl) determination; format: physicochemical; conditions: 2500 ppm aqueous solution, heated ca. 5 °C/min up to 95 °C
Protocol: A 2500 ppm aqueous solution of each citramide derivative was heated slowly (ca. 5 °C/min), and the first sign of clouding of the solution at a certain temperature was denoted as the cloud point. Any solution that was already opaque at room temperature was first kept in a cooling room at 0–5 °C overnight before heating. Each measurement was repeated at least three times to check the reproducibility of the cloud point.

[3] = Solubility in water (observation); format: physicochemical
[4] = 2500 ppm aqueous solution, cooling 20.5 to 2 °C at 1 °C/h, average of 5-10 tests
[5] = 2500 ppm aqueous solution, cooling 20.5 to 2 °C at 1 °C/h, average of 5-10 tests, lower = better KHI
[6] = 1000 ppm aqueous solution, SCC 1 °C/h
[7] = 2500 ppm + 1 mL of n-decane each cell + 5000 ppm nBGE, SCC 1 °C/h
[8] = 2500 ppm + 1 mL of n-decane each cell, SCC 1 °C/h
[9] = 2500 ppm + 3 mL of n-decane each cell + 5000 ppm nBGE, SCC 1 °C/h

| SMILES | av. Ta (gas hydrate rapid formation temperature) [1, 4] | cloud p.t Tcl [2] | av. To (gas hydrate onset temperature) [1, 5] | further results |
| --- | --- | --- | --- | --- |
| CC(C)CNC(=O)CC(O)(CC(=O)NCC(C)C)C(=O)NCC(C)C [TiBuCAm, 2-Hydroxy-N^1,N^2,N^3-triisobutylpropane-1,2,3-tricarboxamide] | 13.5 °C | >95 °C | – | – |
| CCCCCNC(=O)CC(O)(CC(=O)NCCCCC)C(=O)NCCCCC [TnPeCAm, 2-Hydroxy-N^1,N^2,N^3-tripentylpropane-1,2,3-tricarboxamide] | – | – | – | solubility in water [3]: not soluble; solubility in water ([3]; listed as Tri-n-pentylcitramide): negligible solubility in water; solubility in water ([3]; listed as tri-n-pentylcitramide): not water soluble |
| CCCNC(=O)CC(O)(CC(=O)NCCC)C(=O)NCCC [TnPrCAm, 2-Hydroxy-N^1,N^2,N^3-tripropylpropane-1,2,3-tricarboxamide] | 12.3 °C | >95 °C | 16.3 °C | – |
| CC(C)CNC(=O)CC(CC(=O)NCC(C)C)(OC(=O)CC(=O)OC(CC(=O)NCC(C)C)(CC(=O)NCC(C)C)C(=O)NCC(C)C)C(=O)NCC(C)C [malonyl-TiBuCAm, 1,3-Malonic acid bis(triisobutylcitric acid) amide] | 12.7 °C | >95 °C | – | – |
| CCCNC(=O)CC(CC(=O)NCCC)(OC(=O)CC(=O)OC(CC(=O)NCCC)(CC(=O)NCCC)C(=O)NCCC)C(=O)NCCC [malonyl-TnPrCAm, 1,3-Malonic acid bis(tripropylcitric acid) amide] | 13.5 °C | >95 °C | 16.3 °C | – |
| CC(C)CNC(=O)CC(CC(=O)NCC(C)C)(OC(=O)COCC(=O)OC(CC(=O)NCC(C)C)(CC(=O)NCC(C)C)C(=O)NCC(C)C)C(=O)NCC(C)C [oxydiacetyl-TiBuCAm, 2,2′-oxydiacetic acid bis(triisobutylcitric acid) amide] | 8.1 °C | 35 °C | 8.4 °C | av. Ta (gas hydrate rapid formation temperature) [1, 6]: 9.2 °C; av. To (gas hydrate onset temperature) [1, 6]: 9.3 °C; av. Ta (gas hydrate rapid formation temperature) [1, 7]: 7.9 °C; av. To (gas hydrate onset temperature) [1, 7]: 8.1 °C; av. Ta (gas hydrate rapid formation temperature) [1, 8]: 7.2 °C; av. To (gas hydrate onset temperature) [1, 8]: 7.4 °C; av. Ta (gas hydrate rapid formation temperature) [1, 9]: 6.0 °C; av. To (gas hydrate onset temperature) [1, 9]: 6.2 °C |
| CCCNC(=O)CC(CC(=O)NCCC)(OC(=O)COCC(=O)OC(CC(=O)NCCC)(CC(=O)NCCC)C(=O)NCCC)C(=O)NCCC [oxydiacetyl-TnPrCAm, 2,2′-Oxydiacetic acid bis(tripropylcitric acid) amide] | 12.3 °C | >95 °C | 12.8 °C | – |
